In US20030109522A1, “Ophthalmologic treatment methods using selective iNOS inhibitors” (priority 2001, published 2003):
Structures can show the parent of a compound that is named as a salt. Where two headings read alike, the source gives them in different places.

Tests used:
[1] = tested on: nitrite production in human cartilage explants; assay: Human cartilage explant assay (IL-1 induced nitrite production); format: cell-based; details: inhibition of nitrite production, IL-1 stimulated explants
Experimental: Human Cartilage Explant Assay
Bone pieces are rinsed twice with Dulbecco's Phosphate Buffered Saline (GibcoBRL) and once with Dulbecco's Modified Eagles Medium (GibcoBRL) and placed into a petri dish with phenol red free Minimum Essential Medium (MEM) (GibcoBRL). Cartilage was cut into small explants of approximately 15-45 mg in weight and one or two explants per well are placed into either 96 or 48 well culture plates with 200-500 μL of culture media per well. The culture media was either a custom modification of Minimum Essential Medium(Eagle) with Earle's salts (GibcoBRL) prepared without L-Arginine, without L-Glutamine and without phenol red or a custom modification of serumless Neuman and Tytell (GibcoBRL) medium prepared without L-arginine, without insulin, without ascorbic acid, without L-glutamine and without phenol red. Both are supplemented before use with 100 μM L-Arginine (Sigma), 2 mM L-glutamine, 1×HL-1 supplement (BioWhittaker), […] ascorbic acid (Sigma) and 150 pg/ml recombinant human IL-1[…] (RD Systems) to induce nitric oxide synthase. Compounds are then added in 10 μL aliquots and the explants incubated at 37° C. with 5% CO2 for 18-24 hours. The day old supernatant is then discarded and replaced with fresh culture media containing recombinant human IL-1 ? and compound and incubated for another 20-24 hours. […] All samples are done in quadruplicate. Unstimulated controls are cultured in media in the absence of recombinant human IL-1[…]. IC50 values (Table I) are determined from plotting the percent inhibition of nitrite production at six different concentrations of inhibitor.

[2] = biological target: T1, human neuronal constitutive NOS (hncNOS) (Homo sapiens, UniProt P29475); assay: Citrulline assay for nitric oxide synthase, hncNOS; format: biochemical; details: averages across all experiments and all lots; 30 μM L-arginine
T1 construct: made in house; host or cells: Sf9 insect cells, baculovirus vector

[3] = tested on: LPS-induced increase in plasma nitrite/nitrate levels; assay: In vivo assay, endotoxin-treated rats; details: administered orally, plasma nitrite/nitrate 5 hours post-treatment
Experimental: Plasma nitrite/nitrate levels can be determined 5 hours post-treatment.

[4] = biological target: T2, human endothelial constitutive NOS (hecNOS) (Homo sapiens, UniProt P29474); assay: Citrulline assay for nitric oxide synthase, hecNOS; format: biochemical; details: averages across all experiments and all lots; 30 μM L-arginine
T2 construct: made in house; host or cells: Sf9 insect cells, baculovirus vector

[5] = biological target: T3, Human inducible NOS (hiNOS) (Homo sapiens, UniProt P35228); assay: Citrulline assay for nitric oxide synthase, hiNOS; format: biochemical; details: averages across all experiments and all lots; 30 μM L-arginine
T3 construct: made in house; host or cells: Sf9 insect cells, baculovirus vector

hncNOS = biological target: T4, hncNOS (Homo sapiens, UniProt P29475); assay: Assay for time dependent inhibition, hncNOS; format: biochemical
T4 construct: made in house; host or cells: Sf9 insect cells, baculovirus vector
Experimental: (§1) Assay for Time Dependent Inhibition
(§2) Aliquots (10 μL) are removed at 0, 10,21 and 60 minutes and immediately added to a citrulline assay enzyme reaction mixture containing L-[2,3-^3H]-arginine and a final L-arginine concentration of 30 μM in a final volume of 100 μL. The reaction is allowed to proceed for 15 minutes at 37° C. and terminated by addition of stop buffer and chromatography with Dowex 50W X-8 cation exchange ion exchange resin as described for the citrulline NOS assay. The % inhibition of NOS activity by an inhibitor was taken as the percent inhibition in activity compared to control enzyme preincubated for the same time in the absence of inhibitor.

hecNOS = biological target: T5, hecNOS (Homo sapiens, UniProt P29474); assay: Assay for time dependent inhibition, hecNOS; format: biochemical
T5 construct: made in house; host or cells: Sf9 insect cells, baculovirus vector
Experimental: as §1, §2

hiNOS = biological target: T6, hiNOS (Homo sapiens, UniProt P35228); assay: Assay for time dependent inhibition, hiNOS; format: biochemical
T6 construct: made in house; host or cells: Sf9 insect cells, baculovirus vector
Experimental: as §1, §2

retinal ganglion cells = details: rats with chronic moderately elevated IOP; cited from earlier work
[6] = Rattus norvegicus, po, read-out: ED50

T2 sequence (P29474 2-1203): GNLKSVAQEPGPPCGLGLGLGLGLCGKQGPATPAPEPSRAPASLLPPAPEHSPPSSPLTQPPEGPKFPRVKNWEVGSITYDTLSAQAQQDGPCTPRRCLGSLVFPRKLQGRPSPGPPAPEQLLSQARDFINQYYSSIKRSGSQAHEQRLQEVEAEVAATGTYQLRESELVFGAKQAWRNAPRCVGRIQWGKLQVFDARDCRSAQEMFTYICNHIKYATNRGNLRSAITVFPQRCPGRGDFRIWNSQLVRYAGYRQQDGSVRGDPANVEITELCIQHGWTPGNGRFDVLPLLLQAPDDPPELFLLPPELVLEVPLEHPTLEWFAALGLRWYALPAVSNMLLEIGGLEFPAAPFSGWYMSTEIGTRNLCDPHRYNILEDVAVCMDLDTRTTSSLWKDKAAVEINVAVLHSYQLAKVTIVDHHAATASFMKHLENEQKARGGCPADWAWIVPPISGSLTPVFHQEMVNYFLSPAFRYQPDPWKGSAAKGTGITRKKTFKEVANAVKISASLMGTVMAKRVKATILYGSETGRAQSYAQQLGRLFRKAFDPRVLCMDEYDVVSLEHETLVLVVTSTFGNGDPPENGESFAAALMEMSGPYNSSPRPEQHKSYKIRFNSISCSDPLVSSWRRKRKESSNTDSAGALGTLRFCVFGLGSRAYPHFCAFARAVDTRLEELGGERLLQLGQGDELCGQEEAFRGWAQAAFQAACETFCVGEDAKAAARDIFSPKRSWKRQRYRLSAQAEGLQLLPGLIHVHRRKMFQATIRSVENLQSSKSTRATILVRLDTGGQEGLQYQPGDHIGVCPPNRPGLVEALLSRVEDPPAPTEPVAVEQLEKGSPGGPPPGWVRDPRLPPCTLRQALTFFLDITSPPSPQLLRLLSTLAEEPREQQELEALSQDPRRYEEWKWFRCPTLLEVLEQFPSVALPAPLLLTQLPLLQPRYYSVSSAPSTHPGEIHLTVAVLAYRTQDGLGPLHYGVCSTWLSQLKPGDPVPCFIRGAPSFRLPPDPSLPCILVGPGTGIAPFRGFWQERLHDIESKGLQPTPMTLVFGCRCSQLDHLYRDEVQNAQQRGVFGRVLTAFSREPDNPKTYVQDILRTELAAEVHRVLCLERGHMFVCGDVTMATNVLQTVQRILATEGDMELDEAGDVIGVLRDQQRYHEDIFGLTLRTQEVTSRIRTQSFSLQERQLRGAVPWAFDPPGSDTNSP
T3 sequence (P35228 whole entry): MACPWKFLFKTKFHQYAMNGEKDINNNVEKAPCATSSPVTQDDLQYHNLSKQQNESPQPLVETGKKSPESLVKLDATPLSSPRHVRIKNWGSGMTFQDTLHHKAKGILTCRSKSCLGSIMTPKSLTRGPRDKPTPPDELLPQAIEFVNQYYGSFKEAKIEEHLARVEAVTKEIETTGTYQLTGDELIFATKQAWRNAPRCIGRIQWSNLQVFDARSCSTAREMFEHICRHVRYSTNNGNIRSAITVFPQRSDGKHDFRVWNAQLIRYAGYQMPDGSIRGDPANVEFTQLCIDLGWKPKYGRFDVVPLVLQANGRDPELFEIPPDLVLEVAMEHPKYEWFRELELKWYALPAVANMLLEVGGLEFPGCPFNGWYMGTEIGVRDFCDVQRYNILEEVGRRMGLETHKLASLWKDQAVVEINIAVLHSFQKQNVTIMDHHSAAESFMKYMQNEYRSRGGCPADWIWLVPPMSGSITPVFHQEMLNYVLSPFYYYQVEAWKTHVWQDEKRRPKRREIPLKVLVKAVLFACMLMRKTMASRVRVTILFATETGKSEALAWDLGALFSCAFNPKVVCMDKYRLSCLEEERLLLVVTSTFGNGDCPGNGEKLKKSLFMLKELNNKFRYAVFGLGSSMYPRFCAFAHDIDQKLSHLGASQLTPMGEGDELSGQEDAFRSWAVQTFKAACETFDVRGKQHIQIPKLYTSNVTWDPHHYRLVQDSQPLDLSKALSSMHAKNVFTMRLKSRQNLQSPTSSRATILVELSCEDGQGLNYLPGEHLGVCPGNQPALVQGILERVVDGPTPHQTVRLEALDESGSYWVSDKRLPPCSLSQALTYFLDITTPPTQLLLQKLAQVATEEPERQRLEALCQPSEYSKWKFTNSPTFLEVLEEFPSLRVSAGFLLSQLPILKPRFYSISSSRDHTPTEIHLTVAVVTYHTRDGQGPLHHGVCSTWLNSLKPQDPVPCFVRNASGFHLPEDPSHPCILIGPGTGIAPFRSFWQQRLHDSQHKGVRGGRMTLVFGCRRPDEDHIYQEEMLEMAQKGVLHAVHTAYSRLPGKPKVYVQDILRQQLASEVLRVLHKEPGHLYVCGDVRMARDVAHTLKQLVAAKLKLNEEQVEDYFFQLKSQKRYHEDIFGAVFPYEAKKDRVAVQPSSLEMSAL
T1 sequence (P29475 whole entry): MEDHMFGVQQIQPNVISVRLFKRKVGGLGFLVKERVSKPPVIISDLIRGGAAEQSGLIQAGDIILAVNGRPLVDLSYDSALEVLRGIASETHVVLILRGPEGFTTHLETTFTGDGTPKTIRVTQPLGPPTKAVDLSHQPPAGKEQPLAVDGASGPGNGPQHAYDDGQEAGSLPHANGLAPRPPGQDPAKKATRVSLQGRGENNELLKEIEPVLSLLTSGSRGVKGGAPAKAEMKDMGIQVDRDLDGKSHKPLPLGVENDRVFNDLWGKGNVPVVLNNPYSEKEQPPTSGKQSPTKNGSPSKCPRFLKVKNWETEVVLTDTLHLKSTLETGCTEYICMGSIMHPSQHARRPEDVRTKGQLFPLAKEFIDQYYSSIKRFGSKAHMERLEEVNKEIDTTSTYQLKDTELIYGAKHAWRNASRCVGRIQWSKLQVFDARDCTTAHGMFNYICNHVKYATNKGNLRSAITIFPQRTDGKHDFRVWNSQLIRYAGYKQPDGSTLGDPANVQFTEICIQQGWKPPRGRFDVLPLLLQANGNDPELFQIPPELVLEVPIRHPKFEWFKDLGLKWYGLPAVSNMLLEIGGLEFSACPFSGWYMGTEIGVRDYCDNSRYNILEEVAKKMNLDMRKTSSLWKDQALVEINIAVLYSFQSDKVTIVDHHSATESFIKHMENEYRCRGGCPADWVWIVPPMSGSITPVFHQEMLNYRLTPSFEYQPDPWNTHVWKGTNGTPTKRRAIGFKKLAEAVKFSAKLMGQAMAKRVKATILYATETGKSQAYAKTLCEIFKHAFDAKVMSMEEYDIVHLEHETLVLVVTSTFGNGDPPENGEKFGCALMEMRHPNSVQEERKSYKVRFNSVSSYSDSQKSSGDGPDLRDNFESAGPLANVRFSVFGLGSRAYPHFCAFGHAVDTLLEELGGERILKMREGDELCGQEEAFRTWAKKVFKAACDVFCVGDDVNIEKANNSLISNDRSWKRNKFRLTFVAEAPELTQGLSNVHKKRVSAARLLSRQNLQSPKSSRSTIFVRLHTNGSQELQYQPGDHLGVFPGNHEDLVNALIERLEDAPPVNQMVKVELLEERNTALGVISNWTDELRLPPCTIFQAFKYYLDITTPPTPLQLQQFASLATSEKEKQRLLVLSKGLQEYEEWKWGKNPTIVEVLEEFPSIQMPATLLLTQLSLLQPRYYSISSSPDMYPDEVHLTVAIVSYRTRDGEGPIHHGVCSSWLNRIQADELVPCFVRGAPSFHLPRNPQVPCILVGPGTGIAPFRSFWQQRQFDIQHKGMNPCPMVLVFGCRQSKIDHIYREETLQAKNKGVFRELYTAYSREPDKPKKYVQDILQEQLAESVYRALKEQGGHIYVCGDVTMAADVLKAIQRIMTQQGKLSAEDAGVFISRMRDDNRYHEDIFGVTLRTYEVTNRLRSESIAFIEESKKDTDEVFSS

IC50 [2] [µM]	IC50 [4] [µM]	IC50 [5] [µM]	Structure (SMILES)	IC50 ([1]; Homo sapiens) [µM]	ED50 [3, 6] [mg/kg]	also measured
–	–	–	CC(=N)NCC(F)=CCC[C@H](N)C(=O)O (mixture of isomers) [Example B, (2S,5E/Z)-2-amino-6-fluoro-7-[(1-iminoethyl)amino]-5-heptenoic Acid, Dihydrochloride]	0.2	–	–
13	52	0.57	CC(=N)NC/C(F)=C\CCC(C)(N)C(=O)O (racemic) [Example KK, (2R/S,5E)-2-amino-2-methyl-6-fluoro-7-[(1-iminoethyl)amino]-5-heptenoic Acid, Dihydrochloride]	–	0.3	–
–	–	–	CC(=N)NC/C(F)=C\CC[C@H](N)C(=O)O [Example A, (2S,5E)-2-amino-6-fluoro-7-[(1-iminoethyl)amino]-5-heptenoic Acid, Dihydrochloride, Monohydrate]	0.1	< 0.1	ED50 ([3]; Dihydrochloride, Monohydrate): <0.1 mg/kg
< 3	> 5	< 3	N=C1CCCC[C@H](C/C=C\C[C@H](N)C(=O)O)N1 [Example AA, (2S,4Z)-2-amino-6-[(2R)-hexahydro-7-imino-1H-azepin-2-yl]-4-hexenoic Acid]	< 3	< 10	inhibition at 0.9 µM (hncNOS; 21 min preincubation): 34%; inhibition at 0.9 µM (hncNOS; 60 min preincubation): 0%; inhibition at 2.2 µM (hecNOS; 2.2 μM, 60 min preincubation): 55%; inhibition at 5.7 µM (hecNOS; 5.7 μM, 21 min preincubation): 58%; inhibition at 2.2 µM (hiNOS; 21 min preincubation): 96%; inhibition at 2.2 µM (hiNOS; 60 min preincubation): 97%
< 10	> 25	< 10	N=C1CCCC[C@H](C/C=C/C[C@H](N)C(=O)O)N1 [Example BB, (2S,4E)-2-amino-6-[(2R)-hexahydro-7-imino-1H-azepin-2-yl]-4-hexenoic Acid]	–	–	–
9.9	29	2.9	CC(=N)NC/C=C/CC(C)(N)C(=O)O (stereo not shown) [Example CC, (E)-2-amino-2-methyl-6-[(1-iminoethyl)amino]-4-hexenoic Acid, Dihydrochloride]	0.5	< 3	–
–	–	–	CC(=N)NC/C(F)=C/CC[C@H](N)C(=O)O [Example D, (2S,5Z)-2-amino-6-fluoro-7-[(1-iminoethyl)amino]-5-heptenoic Acid, Trihydrochloride, Dihydrate]	2.5	> 10	–
31	74	10	CC(=N)NC/C=C/C[C@@](C)(N)C(=O)O [Example DD, (R, E)-2-amino-2-methyl-6-[(1-iminoethyl)amino]-4-hexenoic Acid, Dihydrochloride]	1.8	–	–
5.8	18	1.4	CC(=N)NC/C=C/C[C@](C)(N)C(=O)O [Example EE, (S, E)-2-amino-2-methyl-6-[(1-iminoethyl)amino]-4-hexenoic Acid, Dihydrochloride]	0.5	0.2	–
45	86	16	CC(=N)NCC#CCC(C)(N)C(=O)O (stereo not shown) [Example FF, 2-amino-2-methyl-6-[(1-iminoethyl)amino]-4-hexynoic Acid, Dihydrochloride]	–	–	–
–	–	–	CC(=NO)NC/C(F)=C\CC[C@H](N)C(=O)O [Example G, (2S,5E)-2-amino-6-fluoro-7-[(1-hydroximinoethyl)amino]-5-heptenoic Acid]	–	< 0.1	melting point: 198 to 200 °C
–	–	–	CC(=N)NC/C(F)=C\CC[C@H](N)C(=O)Nc1nnn[nH]1 [Example H, (2S,5E)-2-amino-6-fluoro-7-[(1-iminoethyl)amino]-N-(1H-tetrazol-5-yl) 5-heptenamide, Dihydrochloride]	–	< 0.3	–
–	–	–	COC[C@](N)(CSCCNC(C)=N)C(=O)O [Example J, 2-[[[2-1(1-Iminoethyl)amino]ethyl]thiolmethyl]-O-methyl-D-serine, Dihydrochloride]	–	–	IC50 [1]: 8.2 µM
584	352	56	CC(=N)NC/C(F)=C\CC[C@@](C)(N)C(=O)O [Example JJ, (2R,5E)-2-amino-2-methyl-6-fluoro-7-[(1-iminoethyl)amino]-5-heptenoic Acid, Dihydrochloride]	–	–	–
–	–	–	CC(=N)NC/C=C\CC[C@H](N)C(=O)O [Example T, (2S,5Z)-2-amino-7-[(1-iminoethyl)amino]-5-heptenoic Acid, Dihydrochloride]	0.1	–	–
–	–	–	N=C1CCCC[C@H](CCCC[C@@H](N)C(=O)O)N1 [Example V, ([…]R,2S)-[…]-aminohexahydro-7-imino-1H-azepine-2-hexanoic Acid, Trihydrate Hydrochloride]	< 10	< 3	–
–	–	–	N=C1CCCC[C@@H](CCCC[C@H](N)C(=O)O)N1 [Example W, ([…]S,2R)-[…]-aminohexahydro-7-imino-1H-azepine-2-hexanoic Acid, Trihydrate Hydrochloride]	> 30	> 10	inhibition at 13 µM (hncNOS; 13 μM, 21 min preincubation): 0%; inhibition at 173 µM (hecNOS; 21 min preincubation): 9%; inhibition at 173 µM (hecNOS; 60 min preincubation): 0%; inhibition at 4.2 µM (hiNOS; 21 min preincubation): 34%; inhibition at 4.2 µM (hiNOS; 60 min preincubation): 38%
–	–	–	N=C1CCCC[C@H](CCCC[C@H](N)C(=O)O)N1 [Example X, ([…]S,2S)-[…]-aminohexahydro-7-imino-1H-azepine-2-hexanoic Acid, Trihydrate Hydrochloride]	< 10	–	–
–	–	–	N=C1CCCC[C@H](CCCC[C@@H](N)C(=O)O)N1 [Example Y, ([…]R,2S)-[…]-aminohexahydro-7-imino-1H-azepine-2-hexanoic Acid, Trihydrate Hydrochloride]	–	–	inhibition at 5 µM (hncNOS; 5 μM, 21 min preincubation): 0%; IC50 [1]: < 10 µM; inhibition at 33 µM (hecNOS; 21 min preincubation): 11%; inhibition at 33 µM (hecNOS; 60 min preincubation): 11%; inhibition at 2.8 µM (hiNOS; 21 min preincubation): 75%; inhibition at 2.8 µM (hiNOS; 60 min preincubation): 76%
–	–	–	N=C1CCCC[C@H](CCCC[C@H](N)C(=O)O)N1 [Example Z, ([…]S,2S)-[…]-aminohexahydro-7-imino-1H-azepine-2-hexanoic Acid, Trihydrate Hydrochloride]	–	< 5	inhibition at 3 µM (hncNOS; 3 μM, 21 min preincubation): 0%; inhibition at 15 µM (hecNOS; 21 min preincubation): 18%; inhibition at 15 µM (hecNOS; 60 min preincubation): 16%; inhibition at 2.2 µM (hiNOS; 21 min preincubation): 86%; inhibition at 2.2 µM (hiNOS; 60 min preincubation): 85%
–	–	–	N=C(N)NN [aminoguanidine]	–	–	loss of retinal ganglion cells (retinal ganglion cells): blocks loss of retinal ganglion cells

Structure (SMILES)	IC50 [2] [µM]	IC50 [4] [µM]	IC50 [5] [µM]	IC50 ([1]; Homo sapiens) [µM]	ED50 [3, 6] [mg/kg]	also measured
CC(=N)NC/C(F)=C\CC[C@](C)(N)C(=O)O.Cl.Cl [Example HH, (2S,5E)-2-amino-2-methyl-6-fluoro-7-[(1-iminoethyl)amino]-5-heptenoic Acid, Dihydrochloride]	7.6	37	0.4	0.4	0.4	–
CC(=N)NC/C=C\CC[C@](C)(N)C(=O)O.Cl.Cl [Example LL, (2S,5Z)-2-amino-2-methyl-7-[(1-iminoethyl)amino]-5-heptenoic Acid, Dihydrochloride]	12	31	0.7	0.8	0.3	–
CC(=N)NC/C=C\CC[C@@](C)(N)C(=O)O [Example MM, (2R,5Z)-2-amino-2-methyl-7-[(1-iminoethyl)amino]-5-heptenoic Acid, Dihydrochloride]	1480	1930	121	–	–	–
